Source: patent publication US12171230B2, “Herbicidal compositions” (Bayer Aktiengesellschaft, priority 2018, dated 2024)
“And” between values parts separate entries of the source, which are not always exact repeats. Equal values may be shown once.

Experiments:
Format in all cases: in vivo
Bromus sterilis = experiment: Post-emergence herbicidal action against Bromus sterilis
Phalaris minor = experiment: Post-emergence herbicidal action against Phalaris minor
Echinochloa crus-galli = experiment: Post-emergence herbicidal action against Echinochloa crus-galli; conditions: 21 DAT; 50 g a.i./ha
Method: (§1) When the observed efficacies exceed the formal sum total of the values of the tests with individual applications, they also exceed the expected value according to Colby, which is calculated using the formula below and is likewise regarded as an indication of synergism (cf. S. R. Colby; in Weeds 15 (1967) p. 20 to 22): E^C=A+B−([…])
(§2) Here: • A=efficacy of the active compound (A) in % at an application rate of a g a.i./ha; • B=efficacy of the active compound (B) in % at an application rate of b g a.i./ha; • E^C=expected value of the effect of the combination (A)+(B) in % at the combined application rate a+b g a.i./ha.
(§3) Seeds or rhizome pieces of mono- and dicotyledonous weeds are placed in sandy loam in pots, covered with soil and grown in a greenhouse under good growth conditions (temperature, air humidity, water supply). Three weeks after sowing, the test plants were treated at the three-leaf stage with the compositions according to the invention. The compositions according to the invention formulated as spray powders or as emulsion concentrates were sprayed onto the green plant parts in various dosages with an application rate of 300 to 800 l/ha of water (equivalent). After the test plants have been left to stand in the greenhouse under optimal growth conditions for about 3 to 4 weeks, the action of the preparations is scored visually in comparison to untreated controls. The compositions according to the invention also have good post-emergence herbicidal activity against a broad spectrum of economically important gramineous and broadleaf weeds.

Polygonum convolvulus = experiment: Post-emergence herbicidal action against Polygonum convolvulus; conditions: 21 DAT; 50 g a.i./ha
Alopecurus myosuroides = experiment: Post-emergence herbicidal action against Alopecurus myosuroides
Veronica hederifolia = experiment: Post-emergence herbicidal action against Veronica hederifolia; conditions: 28 DAT; 450 g a.i./ha
Kochia scoparia = experiment: Post-emergence herbicidal action against Kochia scoparia; conditions: 21 DAT
Centaurea cyano = experiment: Post-emergence herbicidal action against Centaurea cyano
How it was run: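 Formulations (spray powders or emulsion concentrates) applied at various doses onto foliage using 300 to 800 l/ha water; plants treated at three-leaf stage, three weeks post-sowing in sandy loam under greenhouse conditions.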

Amaranthus palmeri = experiment: Post-emergence herbicidal action against Amaranthus palmeri; conditions: 21 DAT; (res.); 50 g a.i./ha
How it was run: (§4)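 Weeds sown in sandy loam pots in greenhouse; treated post-emergence at three-leaf stage (three weeks after sowing) by spraying formulated compositions at various dosages in 300 to 800 l/ha water. Visual scoring versus untreated controls after about 3 to 4 weeks; synergism judged against Colby expected values.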

Poa annua = experiment: Post-emergence herbicidal action against Poa annua
How it was run: as §4

Sorghum halepense = experiment: Post-emergence herbicidal action against Sorghum halepense; conditions: 21 DAT
Method: as §1, §2, §3

Lolium rigidum = experiment: Post-emergence herbicidal action against Lolium rigidum
Lamium purpureum = experiment: Post-emergence herbicidal action against Lamium purpureum
How it was run: as §4

Bidens pilosa = experiment: Post-emergence herbicidal action against Bidens pilosa; conditions: 21 DAT
How it was run: as §4

Matricaria inodora = experiment: Post-emergence herbicidal action against Matricaria inodora
Digitaria sanguinalis = experiment: Post-emergence herbicidal action against Digitaria sanguinalis; conditions: 21 DAT; 50 g a.i./ha
How it was run: as §4

O=C(O)CNCP(=O)(O)O [(B7.5) Glyphosate]
Herbicidal action (Bromus sterilis; 14 DAT, 50 g a.i./ha): 30% | Herbicidal action (Bromus sterilis; 28 DAT, 150 g a.i./ha): 40% | Herbicidal action (Phalaris minor; 14 DAT, 50 g a.i./ha): 30% | Herbicidal action (Phalaris minor; 14 DAT, 450 g a.i./ha): 80% | Herbicidal action (Phalaris minor; 28 DAT, 450 g a.i./ha): 30% | Herbicidal action (Echinochloa crus-galli): 45% | Herbicidal action (Polygonum convolvulus): 10% | Herbicidal action (Alopecurus myosuroides; 14 DAT, 50 g a.i./ha): 30% | Herbicidal action (Alopecurus myosuroides; 28 DAT, 50 g a.i./ha): 10% | Herbicidal action (Alopecurus myosuroides; 28 DAT, 150 g a.i./ha): 30% | Herbicidal action (Alopecurus myosuroides; 28 DAT, 450 g a.i./ha): 60% | Herbicidal action (Veronica hederifolia): 90% | Herbicidal action (Kochia scoparia; 50 g a.i./ha): 35% | Herbicidal action (Kochia scoparia; 150 g a.i./ha): 20% | Herbicidal action (Centaurea cyano; 14 DAT, 50 g a.i./ha): 30% | Herbicidal action (Centaurea cyano; 14 DAT, 150 g a.i./ha): 60% | Herbicidal action (Centaurea cyano; 28 DAT, 50 g a.i./ha): 30% | Herbicidal action (Centaurea cyano; 28 DAT, 150 g a.i./ha): 60% | Herbicidal action (Centaurea cyano; 28 DAT, 450 g a.i./ha): 85% | Herbicidal action (Amaranthus palmeri): 60% | Herbicidal action (Poa annua; 14 DAT, 50 g a.i./ha): 20% | Herbicidal action (Poa annua; 28 DAT, 50 g a.i./ha): 30% | Herbicidal action (Poa annua; 28 DAT, 150 g a.i./ha): 50% and 60% | Herbicidal action (Poa annua; 28 DAT, 450 g a.i./ha): 60% | Herbicidal action (Sorghum halepense; 50 g a.i./ha): 30% | Herbicidal action (Sorghum halepense; 150 g a.i./ha): 70% | Herbicidal action (Sorghum halepense; 450 g a.i./ha): 85% | Herbicidal action (Lolium rigidum; 14 DAT, 50 g a.i./ha): 40% | Herbicidal action (Lolium rigidum; 14 DAT, resistant biotype, 50 g a.i./ha): 20% | Herbicidal action (Lolium rigidum; 28 DAT, 50 g a.i./ha): 30% | Herbicidal action (Lolium rigidum; 28 DAT, 150 g a.i./ha): 60% | Herbicidal action (Lamium purpureum; 14 DAT, 50 g a.i./ha): 50% | Herbicidal action (Lamium purpureum; 28 DAT, 50 g a.i./ha): 30% | Herbicidal action (Lamium purpureum; 28 DAT, 150 g a.i./ha): 40% | Herbicidal action (Lamium purpureum; 28 DAT, 450 g a.i./ha): 75% | Herbicidal action (Bidens pilosa; 150 g a.i./ha): 75% | Herbicidal action (Bidens pilosa; 450 g a.i./ha): 85% | Herbicidal action (Matricaria inodora; 14 DAT, 50 g a.i./ha): 40% and 50% | Herbicidal action (Matricaria inodora; 28 DAT, 450 g a.i./ha): 80% | Herbicidal action (Digitaria sanguinalis): 80%
